These are literature values, as cited in patent US7575866B2, “Ligand/binding partner bio-labeling systems” (priority 2003, dated 2009).

One data set concerns the target T1, Mycobacterium avium DHFR (Mycobacterium avium, UniProt O30463).
T1 sequence (O30463 1-181): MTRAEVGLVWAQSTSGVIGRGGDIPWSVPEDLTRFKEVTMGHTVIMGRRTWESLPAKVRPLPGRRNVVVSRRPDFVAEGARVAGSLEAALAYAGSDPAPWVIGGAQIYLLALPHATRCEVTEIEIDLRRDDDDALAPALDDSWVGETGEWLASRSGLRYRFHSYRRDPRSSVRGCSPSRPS

For “2,4-diamino-5-[(2-methoxy-4-carboxybutyloxy)benzyl]pyrimidine”, the “selective binding to Mycobacterium avium DHFR” value at Mycobacterium avium DHFR is listed as “selectively bind”.

Take `CCCCc1c(CN(C)c2ccc(C(=O)N[C@@H](CCC(=O)O)C(=O)O)cc2)cnc2nc(N)nc(N)c12` [5-butyl-5-deazamethotrexate]: the “inhibitory effect on DHFR lowered relative to MTX” value in the data set with DHFR was 17 fold.

For `CN(Cc1cnc2nc(N)nc(N)c2n1)c1ccc(C(=O)N[C@@H](CCC(=O)O)C(=O)O)cc1` [MTX, Methotrexate], in the data set on human cells, the “extracellular concentration at which DNA damage has been observed” value was 10 µM. Besides, the “concentration at which toxicity observed” value with human leukocytes was 2000 nM.
